Data from patent publication US11668709B2, “System for monitoring post-translational modification of protein using bio-sensor with gap and manufacturing method for bio-sensor” (KOREA INSTITUTE OF SCIENCE AND TECHNOLOGY, priority 2018, dated 2023).

Legend:
Format in all cases: biochemical
O-GlcNAcase [1] = assay: Verification Experiment 6: impedance of tau protein with second or third antibody, with and without thiamet G; settings: 5 pg/ml tau protein
Experimental: (§1) Tau protein at a concentration of 5250 ng/mL was diluted 1/10 at various concentrations (0.5 fg/mL to 50 pg/mL) with 0.1% PBST and treated with Thiamet G treatment inhibiting O-GlcNAcase or BZX2 promoting O-GlcNAcase as needed.
(§2) The impedance Z was measured with and without the substance that inhibits O-GlcNAcase, using the system for monitoring post-translational modification of protein according to the embodiment of the present disclosure.
(a) 5 pg/ml of tau protein, (b) 5 pg/ml of tau protein+second antibody (AT-8 antibody), and (c) 5 pg/ml of tau protein+third antibody (O-g Antibody) were introduced into the sensor 100, respectively, and then impedance Z was measured for PBS, Neg, Thiamet G untreated, and 100 μM of thiamet G treated samples, respectively.

O-GlcNAcase [2] = assay: Verification Experiment 4: impedance with and without O-GlcNAcase inhibitor, third antibody (O-g Antibody); settings: 100 μM thiamet G treated compared to untreated; tau protein 0.5-524 fg/ml; O-glycosylation site antibody
Experimental: as §1, §2

O-GlcNAcase [3] = assay: Verification Experiment 5: impedance with O-GlcNAcase inhibitor or promoter, second antibody (AT-8 antibody); settings: 100 μM BZX2 treated; tau protein 0.5-500 fg/ml; AT-8 phosphorylation site antibody
Experimental: as §1
The impedance Z was measured for when treated with a substance that inhibits O-GlcNAcase; and when treated with a substance that promotes O-GlcNAcase of O-glycosylated tau protein, using the system for monitoring post-translational modification of protein according to the embodiment of the present disclosure.
A sample containing the second conjugate S2 (microbead+first antibody+tau protein) and an antibody (second antibody, AT-8 antibody) that can bind to the phosphorylation site of tau protein was introduced into the sensor 100, and impedance Z was measured for each of the following: (a) treated with 100 μM of thiamet G which is a substance that inhibits O-GlcNAcase; and (b) treated with 100 μM of BZX2 which is substance that promotes O-GloNAcase, for respective concentrations (0.5 fg/ml, 5 fg/ml, 50 fg/ml, and 500 fg/ml) of tau protein.
The impedance Z was measured from each sample when the first sample containing the second conjugate S2 was introduced into the sensor 100 and when the second sample containing the third conjugate S3 was introduced into the sensor 100.

impedance Z2 measured as the second antibody (AT-8 antibody) was added (O-GlcNAcase [1]; 100 μM thiamet G treated (untreated 33.65 MΩ)) [MΩ]	impedance Z3 measured as the third antibody (O-g antibody) was added (O-GlcNAcase [1]; 100 μM thiamet G treated (untreated 38.27 MΩ)) [MΩ]	difference in impedance (Z1−Z3) (O-GlcNAcase [2])	Compound	impedance difference (Z1−Z2) (O-GlcNAcase [3])
37.65	35.0	greater	CCN=C1N[C@@H]2[C@@H](O)[C@H](O)[C@@H](CO)O[C@@H]2S1 [thiamet G]	
			BZX2	increases as the concentration of tau protein increases
